In ChEMBL document CHEMBL1201862, “PubChem BioAssay data set” (2004):
Calls of active or inactive are those of the source.

Columns and labels:
[1] = target: Glucose-6-phosphate 1-dehydrogenase (Homo sapiens, UniProt P11413); experiment: inhibition of Homo sapiens G6PD, dose series – biochemical, fluorescence, selectivity assay for P. falciparum G6PD inhibitor project, dose response (AID 504792); type: functional
[2] = target: Glutathione-S-transferase (Schistosoma japonicum, UniProt Q26513); experiment: GST-antibody interaction or FRET quenching – biochemical, TR-FRET, artefact control for Vif-APOBEC3G degradation inhibitor project, dose response (AID 1117362); type: functional
[3] = target: Heat shock protein HSP 90-alpha (Homo sapiens, UniProt P07900); type: functional, organism-based
[4] = test system: CHO; experiment: CHO cell viability loss, potency – luminescence, cytotoxicity control for TLR9-MyD88 binding inhibitor project, dose response (AID 588339); type: functional, cell-based, hamster; details: Cricetulus griseus;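 also: CHO cells stably coexpressing TLR9 and MyD88 fusions from primary screen; compound exposure lasted 48 hours before viability readout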
[5] = target: T1, Rac GTPase-activating protein 1 (Homo sapiens, UniProt Q9H0H5); experiment: blockers of MgcRacGAP-driven Rac1 GTP hydrolysis – biochemical, ADP Hunter fluorescence, primary and confirmatory, confirmation (AID 624330); type: functional
T1 sequence (Q9H0H5 whole entry): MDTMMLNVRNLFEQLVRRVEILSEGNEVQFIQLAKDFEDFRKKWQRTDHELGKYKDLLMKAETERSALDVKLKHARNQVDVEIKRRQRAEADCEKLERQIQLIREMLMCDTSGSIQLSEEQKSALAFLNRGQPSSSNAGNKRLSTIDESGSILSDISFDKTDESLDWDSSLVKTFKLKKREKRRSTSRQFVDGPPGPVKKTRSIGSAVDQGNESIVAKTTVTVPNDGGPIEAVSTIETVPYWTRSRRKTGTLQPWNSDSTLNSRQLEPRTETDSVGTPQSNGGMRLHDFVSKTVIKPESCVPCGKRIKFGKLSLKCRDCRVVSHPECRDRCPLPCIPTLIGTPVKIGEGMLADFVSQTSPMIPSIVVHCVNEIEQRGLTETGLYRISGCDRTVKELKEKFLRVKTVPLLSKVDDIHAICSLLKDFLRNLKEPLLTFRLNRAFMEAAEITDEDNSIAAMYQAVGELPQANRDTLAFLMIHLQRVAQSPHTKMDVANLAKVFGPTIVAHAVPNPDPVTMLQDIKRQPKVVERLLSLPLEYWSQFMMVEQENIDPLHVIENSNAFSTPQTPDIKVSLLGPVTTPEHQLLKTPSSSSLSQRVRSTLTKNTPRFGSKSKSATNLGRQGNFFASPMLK

[6] = target: Beta Lactamase (Pseudomonas aeruginosa, UniProt Q932Y6); experiment: BLA reporter interference, concentration series – BLA reporter cells, FRET fluorescence, artefact control for TLR9-MyD88 binding inhibitor project, dose response (AID 588341); type: cell-based;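 also: cell based assay in CHO-K1 cells stably expressing beta-lactamase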
[7] = target: Nonstructural protein 1 (Influenza A virus, UniProt Q194T2); type: functional, Influenza A virus (A/California/07/2009(H1N1))
[8] = viability loss in THP-1 monocytes – THP-1 cells, cytotoxicity control for Vif-APOBEC3G degradation inhibitor project, dose response (AID 1117359); type: functional; details: THP-1
[9] = test system: Vero; experiment: viability of Vero cells under compound – cytotoxicity control for flavivirus capping enzyme inhibitors (AID 588742); type: functional; details: Chlorocebus sabaeus
[10] = viability loss in HeLa cells – cytotoxicity control for MgcRacGAP inhibitor project, dose response (AID 624300); type: functional
[11] = target: Genome polyprotein (dengue virus type 2, UniProt P29990); experiment: flavivirus cap methylation enzyme inhibition – biochemical, confirmation dose response, primary screen (AID 588689); type: functional
[12] = target: RNA-editing ligase 1, mitochondrial (Trypanosoma brucei brucei, UniProt P86926); experiment: inhibition of trypanosome RNA editing ligase – biochemical, fluorescence, Trypanosoma brucei, dose response (AID 1117295); type: functional
[13] = target: NAD-dependent protein deacylase sirtuin-5, mitochondrial (Homo sapiens, UniProt Q9NXA8); experiment: sirtuin-5 deacylation blockers, concentration series – biochemical, fluorescence imaging, cherry-pick, set 5, dose response (AID 720591);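 also: desuccinylation of succinyl peptide AMC substrate read as fluorescence after trypsin release; potency of inhibitors that lower fluorescence and may act on trypsin instead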
[14] = target: Paired box protein Pax-8 (Homo sapiens, UniProt Q06710); experiment: PAX8 transcriptional activity inhibition in RMG-I – RMG-I cells, luciferase, cherry-pick, dose response (AID 687027); type: functional, cell-based;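 also: luciferase reporter driven by Pax8 target thyroperoxidase promoter measured by SteadyGlo luminescence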
[15] = IGROV1 cell killing – plate reader, dry powder samples, PAX8 inhibitor project, dose response (AID 743043); type: functional, cell-based; details: IGROV-1
[16] = reduced cellular PGC1a acetyl-lysine signal – cell-based, cherry-picked samples, dose response (AID 720514); type: functional;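 also: potency may reflect raised or lowered acetylation signal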
[17] = HEK293 Cytotoxicity Assay Measured in Cell-Based System Using Plate Reader - 7071-01_Inhibitor_Dose_CherryPick_Activity_Set2.; type: functional
[18] = test system: HEK293; experiment: viability loss in HEK293T cells – cell-based, ATP luminescence, cherry-pick samples, cytotoxicity control, dose response (AID 687005); type: functional; details: Homo sapiens;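 also: cells exposed to compound for 48 hours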
[19] = YAP1 overexpression rescue of CTGF inhibition – DLD1 cells, RT-qPCR, cherry-pick, mechanism study for YAP1 pathway inhibitor project, dose response (AID 1053127); type: functional, cell-based; details: DLD-1
[20] = Potency on glucagon-like peptide 1 release, dose-response in NCI-H716 cell line, half maximal inhibitory concentration (AID 1117344); type: functional, cell-based
[21] = glucagon-like peptide-1 release potency in STC-1, concentration-response, half-maximal inhibitory concentration in the STC-1 line (AID 1117345); type: functional, cell-based
[22] = IC50 of insulin release inhibition, rat insulinoma INS-1E line, 5 mM glucose, cell-based (AID 1117331); type: functional
[23] = target: Kallikrein-7 (Homo sapiens, UniProt P49862); experiment: Fluorescence Intensity-based biochemical primary high throughput dose response assay to identify activators of kallikrein-7 (K7) zymogen.
[24] = optical artefact potency, substrate without enzyme – biochemical, fluorescence intensity, triplicate, artefact control for kallikrein-7 zymogen activator project, dose response (AID 720493)
[25] = OVCAR-3 cell viability loss – plate reader, dry powder samples, PAX8 inhibitor project, dose response (AID 743044); type: functional, cell-based
[26] = OVCAR8 cell viability loss – plate reader, dry powder samples, PAX8 project, dose response (AID 743197); type: functional, cell-based; details: OVCAR-8
[27] = CMV-driven luciferase expression suppression in HEK293 – cell-based, luminescence, dry powder, counter-screen for Pax8 inhibitor project, dose response (AID 743020); type: functional
[28] = cells; details: HEK293

Paired box protein Pax-8, sequence (Q06710 whole entry): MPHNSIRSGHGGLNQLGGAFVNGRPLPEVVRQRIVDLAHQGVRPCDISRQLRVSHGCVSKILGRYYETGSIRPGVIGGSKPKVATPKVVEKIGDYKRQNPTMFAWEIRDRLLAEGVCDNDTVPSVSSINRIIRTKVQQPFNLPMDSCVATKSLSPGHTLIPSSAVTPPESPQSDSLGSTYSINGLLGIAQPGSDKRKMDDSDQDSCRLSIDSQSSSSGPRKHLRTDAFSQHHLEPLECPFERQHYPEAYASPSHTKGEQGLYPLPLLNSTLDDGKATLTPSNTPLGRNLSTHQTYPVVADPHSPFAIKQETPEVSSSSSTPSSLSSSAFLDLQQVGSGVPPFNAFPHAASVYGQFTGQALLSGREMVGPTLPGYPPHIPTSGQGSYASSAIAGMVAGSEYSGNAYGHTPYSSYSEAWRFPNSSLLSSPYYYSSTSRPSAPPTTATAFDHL
Glutathione-S-transferase, sequence (Q26513 whole entry): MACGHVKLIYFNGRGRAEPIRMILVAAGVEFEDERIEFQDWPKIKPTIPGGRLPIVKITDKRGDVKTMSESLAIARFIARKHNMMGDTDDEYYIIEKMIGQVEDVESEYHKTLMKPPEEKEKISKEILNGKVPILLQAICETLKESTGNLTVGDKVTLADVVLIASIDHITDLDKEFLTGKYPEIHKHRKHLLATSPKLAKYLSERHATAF
Nonstructural protein 1, sequence (Q194T2 whole entry): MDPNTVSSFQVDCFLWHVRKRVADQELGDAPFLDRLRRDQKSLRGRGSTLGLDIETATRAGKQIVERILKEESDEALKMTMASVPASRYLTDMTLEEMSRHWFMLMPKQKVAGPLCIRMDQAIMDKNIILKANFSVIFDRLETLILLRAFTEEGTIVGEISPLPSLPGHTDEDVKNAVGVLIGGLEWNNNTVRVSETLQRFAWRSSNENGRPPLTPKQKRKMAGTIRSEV
Beta Lactamase, sequence (Q932Y6 whole entry): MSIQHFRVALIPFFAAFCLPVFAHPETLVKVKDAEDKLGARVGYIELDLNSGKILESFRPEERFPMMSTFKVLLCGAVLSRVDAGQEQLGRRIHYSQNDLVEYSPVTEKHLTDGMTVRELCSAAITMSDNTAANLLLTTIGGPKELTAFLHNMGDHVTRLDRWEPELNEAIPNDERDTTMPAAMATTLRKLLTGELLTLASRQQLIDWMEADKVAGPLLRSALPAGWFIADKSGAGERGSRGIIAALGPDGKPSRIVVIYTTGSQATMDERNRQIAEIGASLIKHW
RNA-editing ligase 1, mitochondrial, sequence (P86926 whole entry): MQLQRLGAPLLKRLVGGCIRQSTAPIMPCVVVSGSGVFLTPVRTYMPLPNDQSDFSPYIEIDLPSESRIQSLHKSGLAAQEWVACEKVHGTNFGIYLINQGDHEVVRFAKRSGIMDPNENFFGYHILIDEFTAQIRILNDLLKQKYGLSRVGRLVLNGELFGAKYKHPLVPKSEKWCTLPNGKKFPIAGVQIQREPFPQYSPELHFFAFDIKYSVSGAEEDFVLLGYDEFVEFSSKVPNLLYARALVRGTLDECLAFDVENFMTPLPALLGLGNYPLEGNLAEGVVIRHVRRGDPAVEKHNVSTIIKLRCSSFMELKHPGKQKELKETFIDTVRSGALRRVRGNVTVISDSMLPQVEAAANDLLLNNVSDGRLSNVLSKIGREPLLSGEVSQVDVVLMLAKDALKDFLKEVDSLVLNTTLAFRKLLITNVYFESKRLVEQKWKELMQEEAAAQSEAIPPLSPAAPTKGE
Genome polyprotein, sequence (P29990 2492-3391 limits assumed): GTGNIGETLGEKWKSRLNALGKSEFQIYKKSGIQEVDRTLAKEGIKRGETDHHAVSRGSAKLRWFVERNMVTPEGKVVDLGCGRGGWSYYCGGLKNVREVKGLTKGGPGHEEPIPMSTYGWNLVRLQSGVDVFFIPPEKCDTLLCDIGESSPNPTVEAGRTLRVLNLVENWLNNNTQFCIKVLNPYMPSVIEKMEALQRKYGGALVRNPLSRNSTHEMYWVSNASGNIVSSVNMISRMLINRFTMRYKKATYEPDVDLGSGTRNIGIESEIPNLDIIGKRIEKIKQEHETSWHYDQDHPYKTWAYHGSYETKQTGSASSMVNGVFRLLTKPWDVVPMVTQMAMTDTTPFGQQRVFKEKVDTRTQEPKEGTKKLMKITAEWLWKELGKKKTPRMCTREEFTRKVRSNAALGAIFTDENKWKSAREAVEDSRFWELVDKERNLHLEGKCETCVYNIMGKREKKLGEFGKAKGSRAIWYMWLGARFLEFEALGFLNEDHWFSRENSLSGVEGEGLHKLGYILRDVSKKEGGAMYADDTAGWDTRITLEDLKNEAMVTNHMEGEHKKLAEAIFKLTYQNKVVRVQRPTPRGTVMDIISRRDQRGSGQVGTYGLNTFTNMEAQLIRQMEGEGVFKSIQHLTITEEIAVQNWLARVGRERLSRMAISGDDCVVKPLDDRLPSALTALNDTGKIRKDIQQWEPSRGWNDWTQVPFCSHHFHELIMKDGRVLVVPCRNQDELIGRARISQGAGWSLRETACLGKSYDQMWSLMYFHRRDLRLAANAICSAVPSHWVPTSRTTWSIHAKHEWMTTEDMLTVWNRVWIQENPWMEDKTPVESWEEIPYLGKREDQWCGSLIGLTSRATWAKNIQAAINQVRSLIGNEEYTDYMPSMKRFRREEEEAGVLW
NAD-dependent protein deacylase sirtuin-5, mitochondrial, sequence (Q9NXA8 whole entry): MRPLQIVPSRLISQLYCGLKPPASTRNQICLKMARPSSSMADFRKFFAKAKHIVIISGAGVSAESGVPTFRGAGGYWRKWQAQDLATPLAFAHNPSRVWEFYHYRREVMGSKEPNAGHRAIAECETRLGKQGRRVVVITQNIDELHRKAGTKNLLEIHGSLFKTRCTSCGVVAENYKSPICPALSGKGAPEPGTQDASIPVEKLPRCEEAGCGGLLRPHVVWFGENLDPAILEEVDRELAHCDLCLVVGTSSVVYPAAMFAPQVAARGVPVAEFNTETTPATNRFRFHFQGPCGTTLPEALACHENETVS
Glucose-6-phosphate 1-dehydrogenase, sequence (P11413 whole entry): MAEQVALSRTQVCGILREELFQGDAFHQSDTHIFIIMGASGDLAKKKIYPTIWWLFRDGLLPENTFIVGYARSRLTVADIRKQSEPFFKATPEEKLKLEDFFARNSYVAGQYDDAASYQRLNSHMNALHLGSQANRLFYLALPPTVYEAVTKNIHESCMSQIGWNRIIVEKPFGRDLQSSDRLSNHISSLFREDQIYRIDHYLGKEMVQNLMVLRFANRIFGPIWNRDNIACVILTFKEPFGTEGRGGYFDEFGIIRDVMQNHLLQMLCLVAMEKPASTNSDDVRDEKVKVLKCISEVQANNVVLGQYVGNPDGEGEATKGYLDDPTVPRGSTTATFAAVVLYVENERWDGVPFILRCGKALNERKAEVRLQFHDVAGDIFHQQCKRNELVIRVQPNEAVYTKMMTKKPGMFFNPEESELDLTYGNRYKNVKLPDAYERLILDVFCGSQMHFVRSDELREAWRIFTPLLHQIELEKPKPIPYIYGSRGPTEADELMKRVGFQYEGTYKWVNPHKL
Kallikrein-7, sequence (P49862 whole entry): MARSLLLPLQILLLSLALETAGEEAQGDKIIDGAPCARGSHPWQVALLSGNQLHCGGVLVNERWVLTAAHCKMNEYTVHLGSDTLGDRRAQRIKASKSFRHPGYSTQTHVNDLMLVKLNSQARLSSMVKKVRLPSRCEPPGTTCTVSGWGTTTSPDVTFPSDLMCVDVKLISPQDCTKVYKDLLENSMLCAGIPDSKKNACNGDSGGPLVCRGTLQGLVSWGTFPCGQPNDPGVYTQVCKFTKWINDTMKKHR

In the case of CCN(CC)c1ccc(C(=C2C=CC(=[N+](CC)CC)C=C2)c2ccccc2)cc1, the IC50 [1] is reported as > 80 µM (inactive), the IC50 [2] is reported as 25.3 µM (active) and the AC50 [3] is reported as 0.754 µM (active). The IC50 [4] was 0.181 µM (active), the IC50 [5] was 9.8 µM (active) and the IC50 [6] was 4.75 µM (active). The IC50 [7] was 10.4 µM (active), the CC50 [8] was 0.1 µM (active) and the CC50 [9] was 0.27 µM (active). The CC50 [10] was 0.823 µM (active) and the IC50 [11] was 24.9 µM (active).

In the case of COC(=O)C1=C(C)N(Cc2cccc(C(F)(F)F)c2)C(NCc2ccc(C(F)(F)F)cc2)=NC1c1ccccc1C(F)(F)F (centres undefined), the IC50 [12] is reported as > 96.6 µM (inactive).

In the case of C[C@@H]1CN([C@@H](C)CO)C(=O)c2cc(Br)cnc2O[C@H]1CN(C)Cc1cccnc1, the AC50 [13] is reported as > 30 µM (inactive).

With O=C(C[C@@H]1CC[C@@H]2[C@H](COC[C@@H](O)CN2C(=O)Nc2ccc(C(F)(F)F)cc2)O1)NC1Cc2ccccc2C1 the AC50 [14] was 5.62 µM (active) and the AC50 [15] was 56.8 µM (active).

In the case of O=C1CN(S(=O)(=O)Cc2ccccc2)C[C@@H]2[C@@H](c3ccc(C#Cc4cccc(F)c4)cc3)[C@@H](CO)N12, the AC50 [16] is reported as 21.6 µM (active).

For CC(C)N1C(=O)C2(OCCCO2)c2cc(Br)ccc21, the AC50 [17] was 13 µM (active) and the AC50 [18] was 13 µM (active).

In the case of O=C(Cc1ccncc1)N1CCCCN2[C@H](CO)[C@@H](c3ccc(C#Cc4ccccc4F)cc3)[C@@H]2C1, the AC50 [19] is reported as 24.8 µM (active).

In the case of O=C(O)C1CCC1, the IC50 [20] is reported as > 40 µM (inactive), the IC50 [21] is reported as > 40 µM (inactive) and the IC50 [22] is reported as > 33.3 µM (inactive).

For Cc1ccc(C(=O)Nc2ccc(NC(=O)c3ccc(C)o3)cc2)o1, the EC50 [23] was 12.7 µM (inactive) and the EC50 [24] was > 7.72 µM (active).

In the case of C[C@@H]1CN([C@H](C)CO)C(=O)c2cc(NC(=O)Nc3ccc(F)cc3)ccc2O[C@@H](C)CCCCO[C@@H]1CN(C)Cc1ccc(C(F)(F)F)cc1, the AC50 [25] is reported as 12.4 µM (active), the AC50 [14] is reported as 5.91 µM (active) and the AC50 [26] is reported as 39.5 µM (active). For the same compound, the AC50 [27] was 40.6 µM (active).

With CC(C)CCN(CCC(C)C)CC(O)Cn1c2ccccc2c(=O)c2ccccc21 (centres undefined) the AC50 [28] was > 52 µM (inactive).
